Where a chain is given by its changes, count along the chain named.
Legend:
CXCR3 I279A = biological target: T1, CXCR3 I279A (Homo sapiens, UniProt P49682, I279A); test: Whole-cell 125I-CXCL11 binding assay, L1.2 transfectants; details: I279A, 0.1 nM 125I-CXCL11; read-out: IC50 ligand binding (mean ± SEM)
T1 construct: expressed in transfected cells; host or cells: murine pre-B cell line L1.2, transient transfection
T1 sequence (P49682 1-368 I279A): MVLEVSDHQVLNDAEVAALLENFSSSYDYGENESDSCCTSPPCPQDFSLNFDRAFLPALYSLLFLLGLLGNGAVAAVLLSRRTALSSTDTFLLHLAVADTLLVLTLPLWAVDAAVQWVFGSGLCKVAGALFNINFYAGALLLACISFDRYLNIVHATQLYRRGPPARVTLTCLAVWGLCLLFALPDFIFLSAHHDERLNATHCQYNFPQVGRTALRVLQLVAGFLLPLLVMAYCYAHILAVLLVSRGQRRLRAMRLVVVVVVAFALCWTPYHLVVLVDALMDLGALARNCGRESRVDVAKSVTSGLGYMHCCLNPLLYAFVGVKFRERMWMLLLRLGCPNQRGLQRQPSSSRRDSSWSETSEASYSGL

D112N-CXCR3 = biological target: T2, D112N-CXCR3 (Homo sapiens, UniProt P49682, D112N); test: as above; details: D112N-CXCR3 transfectants (Figure 1); read-out: IC50 for displacement of 125I-CXCL11
T2 construct: expressed in transfected cells; host or cells: murine pre-B cell line L1.2, transient transfection
T2 sequence (P49682 1-368 D112N): T1 sequence (P49682 1-368 I279A) with D112N, A279I

CXCR3 Y308A = biological target: T3, CXCR3 Y308A (Homo sapiens, UniProt P49682, Y308A); test: Chemotaxis assay, L1.2 transfectants migrating to CXCL11; format: cell-based; details: 30 nM CXCL11
T3 construct: expressed in transfected cells; host or cells: murine pre-B cell line L1.2, transient transfection
T3 sequence (P49682 1-368 Y308A): T1 sequence (P49682 1-368 I279A) with A279I, Y308A

CXCR3 Y271A = biological target: T4, CXCR3 Y271A (Homo sapiens, UniProt P49682, Y271A); test: Whole-cell 125I-CXCL11 binding assay, L1.2 transfectants; details: maximum concentration of CXCL11
T4 construct: expressed in transfected cells; host or cells: murine pre-B cell line L1.2, transient transfection
T4 sequence (P49682 1-368 Y271A): T1 sequence (P49682 1-368 I279A) with Y271A, A279I
Experimental: (§1) A previously described pcDNA3 plasmid containing human wild type (WT) CXCR3 cDNA with an HA epitope tag encoded at the N terminus (Meiser et al., [2008]) was used as a template for the generation of point mutants by PCR using the QuikChange II site-directed mutagenesis kit (Stratagene, Amsterdam, the Netherlands). All constructs were verified by DNA sequencing (Eurofins MWG Operon, Ebersberg, Germany) before use. L1.2 cells were transiently transfected by electroporation with 1 μg of vector DNA/10^6 cells at 330V, 975μF and incubated overnight in medium supplemented with 10 mM of sodium butyrate to enhance gene expression.
(§2) Whole-cell binding assays on transiently transfected L1.2 cells were performed as described previously (Vaidehi et al., [2009]) using 0.1 nM ^125I-CXCL11 (Perkin Elmer) and increasing concentrations of unlabeled CXCL11 or antagonist. Cell-associated radioactivity was counted in a Canberra Packard Cobra 5010 gamma counter (Canberra Packard, Pangebourne, UK). Curve fitting and subsequent data analysis was carried out using the program PRISM (GraphPad Software, Inc., San Diego, CA, USA) and IC50 values were obtained by non-linear regression analysis. In all experiments, each data point was assayed in duplicate, with each individual experiment repeated three times. Background binding levels obtained in the presence of a 1000–3000 molar excess of unlabelled chemokine were subtracted from each data point and data are presented as the percentage of counts obtained in the absence of competing ligand. KD values and the number of binding sites per cell were calculated from homologous binding curves prepared in Graph Pad Prism (La Jolla, CA, USA) as previously described (Nedjai et al., [2011]).

CXCR3 F207A = biological target: T5, CXCR3 F207A (Homo sapiens, UniProt P49682, F207A); test: as above; details: maximum concentration of CXCL11
T5 construct: expressed in transfected cells; host or cells: murine pre-B cell line L1.2, transient transfection
T5 sequence (P49682 1-368 F207A): T1 sequence (P49682 1-368 I279A) with F207A, A279I
Experimental: as §1, §2

Compound	IC50 (CXCR3 I279A) [µM]	IC50 (D112N-CXCR3) [µM]	increase in IC50 value, chemotaxis (CXCR3 Y308A; Y308A versus WT)	IC50 (CXCR3 Y308A; Y308A, read-out: IC50 chemotaxis (mean ± SEM)) [µM]	displacement of 125I-CXCL11 by unlabelled CXCL11 (CXCR3 Y271A)	displacement of 125I-CXCL11 by unlabelled CXCL11 (CXCR3 F207A)
Cc1ccc(-c2ccc3c(c2)C=C(C(=O)Nc2ccc(C[N+](C)(C)C4CCOCC4)cc2)CCC3)cc1.[Cl-] [TAK-779, N,N-dimethyl-N-[4-[[[2-(4-methylphenyl)-6,7-dihydro-5H-benzocyclohepten-8-yl]-carbonyl]amino]benzyl] tetrahydro-2H-pyran-4-aminium chloride]	39.4 ± 15	17.2	twofold	41.4 ± 22.6		
CXCL11: recombinant human chemokine, CXCR3 agonist, purchased from PeproTech					unable to displace 50%	unable to displace 50%
